In patent publication EP1650209A1, “Griseusin derivatives and their use as antitumor agents” (Oncotest GmbH, priority 2004, dated 2006):
In brackets after ≈: the same amount, converted by molar mass.

How the values were obtained:
Experiment in all cases: Proliferation inhibition of cancer cells (propidium iodide fluorescence)
Assay type in all cases: cell-based, human
MCF-7 = conditions: Breast, MCF-7 cell line
Procedure: (§1) Using various human cancer cells in vitro, the concentrations of the test compounds (A, B, C, D, E, F), which inhibit the proliferation of cancer cells by 50% (IC50) and 70% (IC70) were determined. Specifically, each cell line of bladder cancer (BXF 1218L and T-24), glioblastoma (CNXF 498NL), colic cancer (HCT-116 and HT-29), gastric cancer (GXF 251 L), head and neck cancer (HNXF 536L), non small cell lung cancer (LXF 1121L, LXF 289L, LXF 526L, LXF 529L, LXF 629L and H-460), mammary cancer (MAXF 401NL, MCF-7, MDA-231 and MDA-468), melanoma (MEXF 276L, MEXF 394NL, MEXF 462NL, MEXF 514L and MEXF 520L), ovary cancer (OVXF 1619L, OVXF 899L and OVCAR-3), pancreatic cancer (PAXF 1657L and PANC-1), prostate cancer (22Rv1, DU-145, LNCaP and PC3M), pleuramesothelioma (PXF 1752L), renal cancer (RXF 1781 L, RXF 393NL, RXF 486L and RXF 944L), and uterine cancer (UXF 1138L) is added to a 96-well microtiter plate at a density of 3.6-11.2x10^3 cells per well in RPMI-1640 medium containing 10% fetal calf serum and 0.1% gentamicin and incubated for 24 hours. After 24 hours RPMI-1640 medium containing 10% fetal calf serum and 0.1% gentamicin, together with a test compound, is added thereto. Then, this plate is incubated at 37°C for 4 days in a humidified atmosphere of air containing 5% CO2. Thereafter, the cell culture medium with or without drug was replaced by 200 µl of an aqueous PI solution (7 µg/ml propidium iodide). Applying a freeze thaw cycle to permeabilize intact cell walls, staining of DNA was achieved, and the fluorescence of each well was measured using the Cy-tofluor 4000 microplate reader (excitation 530 nm, emission 620 nm), giving a direct relationship to the total cell number. Proliferation inhibition is expressed as test versus untreated control (T/C-value [%]). IC50 and IC70 values were determined by plotting compound concentration versus cell viability.

PXF 1752L = conditions: Pleuramesothelio, PXF 1752L cell line
Procedure: as §1

HT-29 = conditions: Colon, HT-29 cell line
Procedure: as §1

CNXF 498NL = conditions: Glioblastoma, CNXF 498NL cell line
Procedure: as §1

MAXF 401NL = MAXF 401NL cell line
Procedure: as §1

BXF 1218L = conditions: Bladder, BXF 1218L cell line
Procedure: as §1

LXFA 1121 L = conditions: Lung, non small cell, LXFA 1121 L cell line
Procedure: as §1

MDA-231 = conditions: Breast, MDA-231 cell line
Procedure: as §1

LXFA 289L = conditions: Lung, non small cell, LXFA 289L cell line
Procedure: as §1

HCT-116 = conditions: Colon, HCT-116 cell line
Procedure: as §1

OVCAR-3 = conditions: Ovary, OVCAR-3 cell line
Procedure: as §1

PC3M = conditions: Prostate, PC3M cell line
Procedure: as §1

MEXF 514L = conditions: Melanoma, MEXF 514L cell line
Procedure: as §1

LNCaP = conditions: Prostate, LNCaP cell line
Procedure: as §1

DU-145 = conditions: Prostate, DU-145 cell line
Procedure: as §1

LXFL 529L = LXFL 529L cell line
Procedure: as §1

MEXF 394NL = conditions: Melanoma, MEXF 394NL cell line
Procedure: as §1

OVXF 1619L = conditions: Ovary, OVXF 1619L cell line
Procedure: as §1

RXF 393NL = conditions: Kidney, RXF 393NL cell line
Procedure: as §1

GXF 251 L = test system: GXF 251 L
Procedure: as §1

LXFA 629L = conditions: Lung, non small cell, LXFA 629L cell line
Procedure: as §1

OVXF 899L = conditions: Ovary, OVXF 899L cell line
Procedure: as §1

MDA-468 = conditions: Breast, MDA-468 cell line
Procedure: as §1

22Rv1 = conditions: Prostate, 22Rv1 cell line
Procedure: as §1

C[C@@H]1CC(=O)[C@@H](O)[C@]2(O1)O[C@@H]1CC(=O)O[C@@H]1C1=C2C(=O)c2c(O)cccc2C1=O [Compound B, 4'-dehydro-deacetylgriseusin A]
IC50 (MCF-7): 0.138 µg/mL (≈ 0.345 µM) | IC70 (MCF-7): 0.210 µg/mL (≈ 0.525 µM) | IC50 (PXF 1752L): 0.124 µg/mL (≈ 0.31 µM) | IC70 (PXF 1752L): 0.208 µg/mL (≈ 0.52 µM) | IC50 (HT-29): 0.114 µg/mL (≈ 0.285 µM) | IC70 (HT-29): 0.177 µg/mL (≈ 0.442 µM) | IC50 (CNXF 498NL): 0.107 µg/mL (≈ 0.267 µM) | IC70 (CNXF 498NL): 0.184 µg/mL (≈ 0.46 µM) | IC50 (MAXF 401NL; Breast): 0.090 µg/mL (≈ 0.225 µM) | IC70 (MAXF 401NL; Breast): 0.160 µg/mL (≈ 0.4 µM) | IC50 value (MAXF 401NL; 4 days): 0.09 µg/mL (≈ 0.225 µM) | IC50 (BXF 1218L): 0.056 µg/mL (≈ 0.14 µM) | IC70 (BXF 1218L): 0.133 µg/mL (≈ 0.332 µM) | IC50 (LXFA 1121 L): 0.083 µg/mL (≈ 0.207 µM) | IC70 (LXFA 1121 L): 0.147 µg/mL (≈ 0.367 µM) | IC50 (MDA-231): 0.068 µg/mL (≈ 0.17 µM) | IC70 (MDA-231): 0.136 µg/mL (≈ 0.34 µM) | IC50 (LXFA 289L): 8.770 µg/mL (≈ 21.9 µM) | IC70 (LXFA 289L): 14.801 µg/mL (≈ 37 µM) | IC50 (HCT-116): 0.697 µg/mL (≈ 1.74 µM) | IC70 (HCT-116): 1.333 µg/mL (≈ 3.33 µM) | IC50 (OVCAR-3): 0.521 µg/mL (≈ 1.3 µM) | IC70 (OVCAR-3): 1.309 µg/mL (≈ 3.27 µM) | IC50 (PC3M): 0.402 µg/mL (≈ 1 µM) | IC70 (PC3M): 0.929 µg/mL (≈ 2.32 µM) | IC50 (MEXF 514L): 0.087 µg/mL (≈ 0.217 µM) | IC70 (MEXF 514L): 0.149 µg/mL (≈ 0.372 µM) | IC50 (LNCaP): 0.107 µg/mL (≈ 0.267 µM) | IC70 (LNCaP): 0.175 µg/mL (≈ 0.437 µM) | IC50 (DU-145): 0.251 µg/mL (≈ 0.627 µM) | IC70 (DU-145): 0.669 µg/mL (≈ 1.67 µM) | IC50 value (LXFL 529L; 4 days): 1.068 µg/mL (≈ 2.67 µM) | IC50 (LXFL 529L; Lung, non small cell): 1.068 µg/mL (≈ 2.67 µM) | IC70 (LXFL 529L; Lung, non small cell): 1.814 µg/mL (≈ 4.53 µM) | IC50 (MEXF 394NL): 0.035 µg/mL (≈ 0.0874 µM) | IC70 (MEXF 394NL): 0.086 µg/mL (≈ 0.215 µM) | IC50 (OVXF 1619L): 0.242 µg/mL (≈ 0.604 µM) | IC70 (OVXF 1619L): 0.916 µg/mL (≈ 2.29 µM) | IC50 (RXF 393NL): 0.104 µg/mL (≈ 0.26 µM) | IC70 (RXF 393NL): 0.164 µg/mL (≈ 0.41 µM) | IC50 value (GXF 251 L; GXF 251L cell line, 4 days): 0.106 µg/mL (≈ 0.265 µM) | IC50 (GXF 251 L; Stomach, GXF 251 L cell line): 0.106 µg/mL (≈ 0.265 µM) | IC70 (GXF 251 L; Stomach, GXF 251 L cell line): 0.178 µg/mL (≈ 0.445 µM) | IC50 (LXFA 629L): 0.234 µg/mL (≈ 0.585 µM) | IC70 (LXFA 629L): 0.671 µg/mL (≈ 1.68 µM) | IC50 (OVXF 899L): 1.265 µg/mL (≈ 3.16 µM) | IC70 (OVXF 899L): 2.249 µg/mL (≈ 5.62 µM) | IC50 (MDA-468): 0.060 µg/mL (≈ 0.15 µM) | IC70 (MDA-468): 0.127 µg/mL (≈ 0.317 µM) | IC50 (22Rv1): 0.071 µg/mL (≈ 0.177 µM) | IC70 (22Rv1): 0.139 µg/mL (≈ 0.347 µM)
